# Data published in patent US20050137220A1 (Pharmacia Corporation, priority 2003, published 2005).
# Several values for one entry are separate records, joined by “and”; a condition that tells them apart may be missing. Equal values may be shown once. Where a name gives a salt, the structure may show the parent alone. Read-outs that look alike come from different tables or passages of the source.
# Target: MK-2 (Homo sapiens, UniProt P49137)
# Assay: Determination of MK-2 IC50 (phosphorylation of HSP-peptide, anion exchange resin capture assay)
# Format: biochemical
# Conditions: mixture of stereoisomers implied unless otherwise noted
# [1] = additional values are replicate IC50 experiments, read-out: MK-2 Avg. IC50
# Sequence of MK-2 (P49137 whole entry, species assumed): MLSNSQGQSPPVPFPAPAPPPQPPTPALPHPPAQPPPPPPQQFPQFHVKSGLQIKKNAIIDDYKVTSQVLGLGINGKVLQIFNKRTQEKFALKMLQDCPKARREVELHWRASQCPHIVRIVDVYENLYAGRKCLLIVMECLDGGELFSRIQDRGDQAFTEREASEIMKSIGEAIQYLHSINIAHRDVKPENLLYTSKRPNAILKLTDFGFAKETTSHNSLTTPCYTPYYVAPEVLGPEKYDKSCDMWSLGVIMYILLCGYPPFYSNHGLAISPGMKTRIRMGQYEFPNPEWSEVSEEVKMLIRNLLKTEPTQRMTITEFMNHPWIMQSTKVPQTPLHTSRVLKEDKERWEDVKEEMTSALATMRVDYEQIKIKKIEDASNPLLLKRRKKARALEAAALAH
SMILES,IC50 [1],"IC50 (MK-2 Avg. IC50, additional values are replicate IC50 experiments) [µM]"
"COc1ccc2[nH]c3c(=O)[nH]ccc3c2c1 [Example 95, 6-methoxy-2,9-dihydro-1H-beta-carbolin-1-one]",31.8 µM,–
"CCOC(=O)c1cccc2c3c([nH]c12)CCNC3=O [Example 96, ethyl 1-oxo-2,3,4,5-tetrahydro-1H-pyrido[4,3-b]indole-6-carboxylate]",34.5 µM,–
"COc1ccc2[nH]c3c(c2c1)CCNC3=S [Example 97, 6-methoxy-2,3,4,9-tetrahydro-1H-beta-carboline-1-thione]",–,34.8
"CS(=O)(=O)c1ccc(COc2ccc3[nH]c4c(c3c2)CCNC4C(=O)O)cc1 (stereo not drawn) [Example 104, 6-{[4-(methylsulfonyl)benzyl]oxy}-2,3,4,9-tetrahydro-1H-beta-carboline-1-carboxylic acid hydrochloride]",44.9 µM,–
"O=C1NCCc2c1[nH]c1ccc(O)cc21 [Example 108, 6-hydroxy-2,3,4,9-tetrahydro-1H-beta-carbolin-1-one]",48.9 µM,–
"O=C(O)C1c2c(c3ccccc3n2Cc2ccccc2)CCN1Cc1cccc(C(F)(F)F)c1 (stereo not drawn) [Example 112, 1H-Pyrido[3,4-b]indole-1-carboxylic acid, 2,3,4,9-tetrahydro-9-(phenylmethyl)-2-[[3-(trifluoromethyl)phenyl]methyl]- or 9-benzyl-2-[3-(trifluoromethyl)benzyl]-2,3,4,9-tetrahydro-1H-beta-carboline-1-carboxylic acid]",53.7 µM,–
"COc1ccc2[nH]c3c(c2c1)C(Cc1ccc(CO)cc1)CNC3C(=O)O (stereo not drawn) [Example 114, 4-[4-(hydroxymethyl)benzyl]-6-methoxy-2,3,4,9-tetrahydro-1H-beta-carboline-1-carboxylic acid]",61.4 µM,–
"O=C1NCCc2c1[nH]c1ccc(Br)cc21 [Example 117, 6-bromo-2,3,4,9-tetrahydro-1H-beta-carbolin-1-one]",69.6 µM,–
"COc1ccc2[nH]c3c(c2c1)C(Cc1cccc(C(F)(F)F)c1)CNC3C(=O)O (stereo not drawn) [Example 118, 6-methoxy-4-[3-(trifluoromethyl)benzyl]-2,3,4,9-tetrahydro-1H-beta-carboline-1-carboxylic acid]",70.9 µM,–
"O=C1NCCc2c1[nH]c1ccc(I)cc21 [Example 120, 6-iodo-2,3,4,9-tetrahydro-1H-beta-carbolin-1-one]",75.2 µM,–
"Cc1ccc2[nH]c3c(c2c1)CCC/C3=N\O [Example 123, 6-methyl-2,3,4,9-tetrahydro-1H-carbazol-1-one oxime]",82.9 µM and 88.1 µM,–
"O=C1NCCc2c1[nH]c1ccc(Cl)cc21 [Example 125, 1H-Pyrido[3,4-b]indol-1-one, 6-chloro-2,3,4,9-tetrahydro- or 6-chloro-2,3,4,9-tetrahydro-1H-beta-carbolin-1-one]",89.6 µM,–
"O=C(O)C1NCCc2c1[nH]c1ccc(OCc3ccc4ccccc4c3)cc21 (stereo not drawn) [Example 127, 6-(2-naphthylmethoxy)-2,3,4,9-tetrahydro-1H-beta-carboline-1-carboxylic acid hydrochloride]",91.3 µM,–
"CCOC(=O)CCCOc1ccc2[nH]c3c(c2c1)CCNC3C(=O)O (stereo not drawn) [Example 130, 6-(4-ethoxy-4-oxobutoxy)-2,3,4,9-tetrahydro-1H-beta-carboline-1-carboxylic acid hydrochloride]",100 µM,–
"COc1cc2[nH]c3c(c2cc1OC)CCCC3=NO [Example 131, 6,7-dimethoxy-2,3,4,9-tetrahydro-1H-carbazol-1-one oxime]",100 µM,–
"COCCOc1ccc2[nH]c3c(c2c1)CCNC3C(=O)O (stereo not drawn) [Example 135, 6-(2-methoxyethoxy)-2,3,4,9-tetrahydro-1H-beta-carboline-1-carboxylic acid]",110 µM,–
"O=C(O)C1NCCc2c1[nH]c1ccc(OCc3ccc(Cl)cc3)cc21 (stereo not drawn) [Example 136, 6-[(4-chlorobenzyl)oxy]-2,3,4,9-tetrahydro-1H-beta-carboline-1-carboxylic acid]",112 µM,–
"O=C(O)C1NCCc2c1[nH]c1ccc(OCc3ccc(C(F)(F)F)cc3)cc21 (stereo not drawn) [Example 138, 6-{[4-(trifluoromethyl)benzyl]oxy}-2,3,4,9-tetrahydro-1H-beta-carboline-1-carboxylic acid hydrochloride hydrate]",115 µM,–
"COc1ccc2[nH]c3c(c2c1)CCN(Cc1ccc(C(F)(F)F)cc1)C3C(=O)O (stereo not drawn) [Example 141, 6-methoxy-2-[4-(trifluoromethyl)benzyl]-2,3,4,9-tetrahydro-1H-beta-carboline-1-carboxylic acid]",119 µM,–
"COc1ccc(Oc2ccc3[nH]c4c(c3c2)CCC/C4=N\O)cc1 [Example 144, 6-(4-methoxyphenoxy)-2,3,4,9-tetrahydro-1H-carbazol-1-one oxime]",130 µM,–
"ON=C1CCCc2c1[nH]c1ccc(C(F)(F)F)cc21 [Example 154, 6-(trifluoromethyl)-2,3,4,9-tetrahydro-1H-carbazol-1-one oxime]",156 µM,–

# More lines, main results first:
IC50 [1],SMILES,"IC50 (MK-2 Avg. IC50, additional values are replicate IC50 experiments) [µM]"
> 200 µM,"COc1ccc2[nH]c3c(c2c1)CCC(C)(C)C3=NO (mixture of isomers) [Example 272, 6-methoxy-2,2-dimethyl-2,3,4,9-tetrahydro-1H-carbazol-1-one oxime]",–
> 200 µM,"COC(=O)[C@@H]1Cc2c([nH]c3ccccc23)C(C)(C(=O)O)N1 (mixture of isomers) [Example 228, 3-(methoxycarbonyl)-1-methyl-2,3,4,9-tetrahydro-1H-beta-carboline-1-carboxylic acid]",–
4.83 µM and 4.96 µM,"CN1CCc2c([nH]c3ccc(OCc4ccccc4)cc23)C1C(=O)O (stereo not drawn) [Example 36, sodium 6-(benzyloxy)-2-methyl-2,3,4,9-tetrahydro-1H-beta-carboline-1-carboxylate]",–
20.4 µM,"COc1ccc2[nH]c3c(c2c1)CC(CCCO)NC3=O (stereo not drawn) [Example 81, 3-(3-hydroxypropyl)-6-methoxy-2,3,4,9-tetrahydro-1H-beta-carbolin-1-one]",–
27.9 µM,"O=C(O)C1NCCc2c1[nH]c1ccc(OCCc3ccccc3)cc21 (stereo not drawn) [Example 87, 6-(2-phenylethoxy)-2,3,4,9-tetrahydro-1H-beta-carboline-1-carboxylic acid hydrochloride]",–
35.5 µM,"O=C(O)COc1ccc2[nH]c3c(c2c1)CCNC3C(=O)O (stereo not drawn) [Example 98, 6-(carboxymethoxy)-2,3,4,9-tetrahydro-1H-beta-carbolin-1-carboxylic acid]",–
39.8 µM,"COC(=O)c1cccc2c3c([nH]c12)CCCC3=O [Example 100, methyl 4-oxo-2,3,4,9-tetrahydro-1H-carbazole-8-carboxylate]",–
39.9 µM,"O=C(O)C1NCCc2c1[nH]c1ccc(OCc3ccccn3)cc21 (stereo not drawn) [Example 101, 6-(pyridin-2-ylmethoxy)-2,3,4,9-tetrahydro-1H-beta-carboline-1-carboxylic acid hydrochloride]",–
42.6 µM,"O=C(O)C1NCCc2c1[nH]c1ccc(OCc3cccnc3)cc21 (stereo not drawn) [Example 102, 6-(pyridin-3-ylmethoxy)-2,3,4,9-tetrahydro-1H-beta-carboline-1-carboxylic acid hydrochloride]",–
48.6 µM,"NNC(=O)c1ccc2[nH]c3c(c2c1)CCNC3C(=O)O (stereo not drawn) [Example 107, 6-(hydrazinocarbonyl)-2,3,4,9-tetrahydro-1H-beta-carboline-1-carboxylic acid]",–
49.9 µM,"O/N=C1\CCCc2c1[nH]c1ccccc21 [Example 109, 2,3,4,9-tetrahydro-1H-carbazol-1-one oxime]",–
50.1 µM,"CCOC(=O)c1ccc2c3c([nH]c2c1)CCNC3=O [Example 110, ethyl 1-oxo-2,3,4,5-tetrahydro-1H-pyrido[4,3-b]indole-7-carboxylate]",–
68.7 µM,"COc1ccc2[nH]c3c(c2c1)CC(CC#N)NC3=O (stereo not drawn) [Example 116, (6-methoxy-1-oxo-2,3,4,9-tetrahydro-1H-beta-carbolin-3-yl)acetontrile]",–
71.9 µM,"COC(=O)c1ccc(COc2ccc3[nH]c4c(c3c2)CCNC4C(=O)O)cc1 (stereo not drawn) [Example 119, 6-{[4-(methoxycarbonyl)benzyl]oxy}-2,3,4,9-tetrahydro-1H-beta-carboline-1-carboxylic acid hydrochloride]",–
95.1 µM and 98.2 µM,"C=CCN1CCc2c([nH]c3ccc(OC)cc23)C1C(=O)O (stereo not drawn) [Example 128, potassium 2-allyl-6-methoxy-2,3,4,9-tetrahydro-1H-beta-carboline-1-carboxylate]",–
104 µM,"COc1ccc2[nH]c3c(c2c1)CCC3=NO [Example 132, 7-methoxy-1,4-dihydrocyclopenta[b]indol-3(2H)-one oxime]",–
105 µM,"CCOC(=O)c1ccc(COc2ccc3[nH]c4c(c3c2)CCNC4C(=O)O)o1 (stereo not drawn) [Example 133, 6-{[5-(ethoxycarbonyl)-2-furyl]methoxy}-2,3,4,9-tetrahydro-1H-beta-carboline-1-carboxylic acid]",–
117 µM,"O=C(O)C1NCCc2c1[nH]c1ccc(OCCCc3ccccc3)cc21 (stereo not drawn) [Example 139, 6-(3-phenylpropoxy)-2,3,49-tetrahydro-1H-beta-carboline-1-carboxylic acid]",–
121 µM,"COC(=O)c1cccc2[nH]c3c(c12)CCNC3C(=O)O (stereo not drawn) [Example 142, 5-(methoxycarbonyl)-2,3,4,9-tetrahydro-1H-beta-carboline-1-carboxylic acid hydrochloride hydrate]",–
136 µM,"COC(=O)CCC1Cc2c([nH]c3ccc(OC)cc23)C(=O)N1 (stereo not drawn) [Example 147, methyl 3-(6-methoxy-1-oxo-2,3,4,9-tetrahydro-1H-beta-carbolin-3-yl)propanoate]",–
137 µM,"CCCC1Cc2c([nH]c3ccc(OC)cc23)C(C(=O)O)N1 (stereo not drawn) [Example 148, 6-methoxy-3-propyl-2,3,4,9-tetrahydro-1H-beta-carboline-1-carboxylic acid]",–
155 µM,"COc1ccc2[nH]c3c(c2c1)CCNS3(=O)=O [Example 153, 6-methoxy-2,3,4,9-tetrahydro[1,2]thiazino[6,5-b]indole 1,1-dioxide]",–
164 µM,"CCOC(=O)CNC(=O)COc1ccc2[nH]c3c(c2c1)CCNC3C(=O)O (stereo not drawn) [Example 155, 6-[2-(2-ethoxy-2-oxoethylamino)-2-oxoethoxy]-2,3,4,9-tetrahydro-1H-beta-carboline-1-carboxylic acid hydrochloride]",–
